Data on 46 compounds can be found in ChEMBL document CHEMBL1201862, “PubChem BioAssay data set” (2004).

For orientation: EC50 means the concentration that produces a half-maximal response. In general, AC50 refers to the concentration giving half of the maximal activity seen.

Activity calls are given as the source filed them. A value given as a limit tells only on which side of the number the result lay.

Test [1] deals with T1, Heat shock factor protein 1 (Mus musculus, UniProt P38532).
T1 sequence (P38532 whole entry): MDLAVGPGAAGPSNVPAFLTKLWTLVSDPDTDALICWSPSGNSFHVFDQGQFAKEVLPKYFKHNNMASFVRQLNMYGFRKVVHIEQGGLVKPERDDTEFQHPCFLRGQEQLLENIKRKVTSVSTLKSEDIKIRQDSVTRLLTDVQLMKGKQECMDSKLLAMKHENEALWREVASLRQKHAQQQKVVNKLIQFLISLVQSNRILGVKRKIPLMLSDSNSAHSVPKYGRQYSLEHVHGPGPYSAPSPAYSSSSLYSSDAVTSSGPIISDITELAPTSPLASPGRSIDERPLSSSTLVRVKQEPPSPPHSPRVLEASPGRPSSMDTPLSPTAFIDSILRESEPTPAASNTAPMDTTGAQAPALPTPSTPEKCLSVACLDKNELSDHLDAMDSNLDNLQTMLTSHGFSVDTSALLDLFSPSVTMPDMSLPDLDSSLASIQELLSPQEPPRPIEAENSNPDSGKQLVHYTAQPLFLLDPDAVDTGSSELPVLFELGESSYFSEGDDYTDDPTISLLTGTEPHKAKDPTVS
The test is described as follows: decrease of HSF1-responsive luciferase luminescence – cell-based, NIH3T3, dose retest, confirmation (AID 2382).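 Also: NIH3T3 fibroblasts with HSF1-driven luciferase reporter stressed by proteasome inhibitor MG132; luminescence from HSF1-driven luciferase expression after 8 hours of MG132 stress.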 The test is classed as functional.

The target of test [2] is Cytochrome P450 3A4 (Homo sapiens, UniProt P08684).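 Also: CYP3A4 tested as one member of a cytochrome P450 panel screen.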
For test [3], the target named is Cytochrome P450 2C9 (Homo sapiens, UniProt P11712).
Test [4] concerns the target T2, Cytochrome P450 1A2 (Homo sapiens, UniProt P05177).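 Also: PubChem cytochrome P450 panel assay, CYP1A2 panel member.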
T2 sequence (P05177 whole entry): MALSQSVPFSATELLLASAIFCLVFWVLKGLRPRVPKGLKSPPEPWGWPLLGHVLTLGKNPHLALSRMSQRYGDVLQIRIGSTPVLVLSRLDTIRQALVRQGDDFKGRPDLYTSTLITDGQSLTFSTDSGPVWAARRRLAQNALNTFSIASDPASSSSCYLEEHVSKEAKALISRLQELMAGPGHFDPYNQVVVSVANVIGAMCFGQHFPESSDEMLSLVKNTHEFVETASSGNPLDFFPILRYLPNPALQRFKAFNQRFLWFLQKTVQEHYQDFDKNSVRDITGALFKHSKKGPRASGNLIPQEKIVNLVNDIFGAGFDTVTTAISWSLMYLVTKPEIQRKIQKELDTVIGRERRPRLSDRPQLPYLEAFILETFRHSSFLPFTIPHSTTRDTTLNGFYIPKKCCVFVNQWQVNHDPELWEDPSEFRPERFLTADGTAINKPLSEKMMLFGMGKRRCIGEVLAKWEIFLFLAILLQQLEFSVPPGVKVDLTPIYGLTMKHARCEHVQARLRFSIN

Test [5] in a line: cells. The test is classed as functional, cell-based.
Test [6] is described as follows: cells. The format is functional, cell-based. The source holds these as a separate data set.
Test [7] is described as follows: luciferase reporter signal suppression in cells – H4 neuroglioma cells, luminescence, dose response (AID 1990). The test is classed as functional, cell-based. (In general: Reporter assays use an easily measured gene product as a stand-in for the process of interest.)
A short description of test [8]: Luminescence Cell-Based Dose Response HTS to Identify Inhibitors of 5'UTR Stem-Loop Driven Prion Protein mRNA Translation in H4 Neuroglioblastoma Cells. [Related pubchem assays: 1827 (Project Summary), 1813 (Primary HTS)]. The test is classed as functional.
The nature of test [9]: alpha-synuclein stem-loop luciferase translation blockers – H4 neuroglioma cells, luminescence, confirmation (AID 1988). The format is functional, cell-based.
Test [10] deals with Cytochrome P450 2C19 (Homo sapiens, UniProt P33261). The experiment in a line: Cytochrome panel assay with activity outcomes. Panel member name: p450-cyp2c19 Compounds with AC50 equal or less than 10 uM are considered active. The format is functional. The settings on record: read-out: AC50.
Test [11] has as its target Cytochrome P450 2D6 (Homo sapiens, UniProt P10635).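 Also: CYP2D6 member of a cytochrome P450 panel assay.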
For test [12], the target named is Luciferin 4-monooxygenase (Photinus pyralis, UniProt P08659). The experiment in a line: inhibition of purified Photinus pyralis luciferase – biochemical, luminescence, dose response (AID 1891).
Test [13] in a line: Luminescence Cell-Based Dose Confirmation HTS to Identify Inhibitors of Platelet Dense Granule Release. [Related pubchem assays: 1663 (Primary HTS), 1678 (Summary of Project)]. The test is classed as functional.
Test [14] concerns INS1. The experiment in a line: INS-1E survival protection against cytokine death – cell-based, luminescence, retest, dose response (AID 449756).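 Also: cell death triggered by IL-1 beta plus TNF-alpha plus IFN-gamma mixture; protective hits raise ATP signal compared with cytokine alone wells.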 The format is functional. The conditions noted are these: Rattus norvegicus, INS1.
For test [15], the target named is T1, Heat shock factor protein 1. The test is described as follows: enhancement of HSF1-driven luciferase signal – cell-based, NIH3T3, luminescence, dose retest, confirmation (AID 435004).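 Also: stress induced by proteasome inhibitor MG132 added 30 min after compound; luciferase reporter driven by HSF1 response element in NIH3T3 cells; actives raise luminescence as potentiators of the MG132 stress response.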 The test is classed as functional.

Cytochrome P450 3A4, sequence (P08684 whole entry): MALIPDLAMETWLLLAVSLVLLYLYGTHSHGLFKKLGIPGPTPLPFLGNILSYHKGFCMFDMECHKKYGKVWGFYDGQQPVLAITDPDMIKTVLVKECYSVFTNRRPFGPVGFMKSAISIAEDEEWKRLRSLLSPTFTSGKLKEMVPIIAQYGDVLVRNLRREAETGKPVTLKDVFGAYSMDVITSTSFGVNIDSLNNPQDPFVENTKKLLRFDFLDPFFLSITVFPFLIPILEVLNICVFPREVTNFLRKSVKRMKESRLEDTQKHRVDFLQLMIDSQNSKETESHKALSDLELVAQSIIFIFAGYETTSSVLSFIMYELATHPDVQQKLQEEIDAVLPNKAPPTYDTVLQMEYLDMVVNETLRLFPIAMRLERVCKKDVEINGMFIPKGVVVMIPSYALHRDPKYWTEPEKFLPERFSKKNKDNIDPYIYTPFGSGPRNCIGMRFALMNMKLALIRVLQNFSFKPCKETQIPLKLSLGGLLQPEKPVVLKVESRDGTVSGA
Cytochrome P450 2C19, sequence (P33261 whole entry): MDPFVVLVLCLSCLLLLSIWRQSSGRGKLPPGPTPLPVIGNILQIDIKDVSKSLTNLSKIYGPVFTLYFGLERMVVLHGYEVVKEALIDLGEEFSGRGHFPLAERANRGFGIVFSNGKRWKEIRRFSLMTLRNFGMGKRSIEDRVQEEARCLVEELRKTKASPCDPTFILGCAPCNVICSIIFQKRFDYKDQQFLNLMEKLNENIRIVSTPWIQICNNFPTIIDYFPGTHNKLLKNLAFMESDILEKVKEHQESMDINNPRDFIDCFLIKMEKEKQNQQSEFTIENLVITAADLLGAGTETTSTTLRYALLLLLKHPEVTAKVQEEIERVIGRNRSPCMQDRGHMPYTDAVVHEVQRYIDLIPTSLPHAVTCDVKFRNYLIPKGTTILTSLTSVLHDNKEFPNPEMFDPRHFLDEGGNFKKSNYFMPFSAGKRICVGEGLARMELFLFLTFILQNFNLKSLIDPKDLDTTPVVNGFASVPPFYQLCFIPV
Cytochrome P450 2D6, sequence (P10635 whole entry): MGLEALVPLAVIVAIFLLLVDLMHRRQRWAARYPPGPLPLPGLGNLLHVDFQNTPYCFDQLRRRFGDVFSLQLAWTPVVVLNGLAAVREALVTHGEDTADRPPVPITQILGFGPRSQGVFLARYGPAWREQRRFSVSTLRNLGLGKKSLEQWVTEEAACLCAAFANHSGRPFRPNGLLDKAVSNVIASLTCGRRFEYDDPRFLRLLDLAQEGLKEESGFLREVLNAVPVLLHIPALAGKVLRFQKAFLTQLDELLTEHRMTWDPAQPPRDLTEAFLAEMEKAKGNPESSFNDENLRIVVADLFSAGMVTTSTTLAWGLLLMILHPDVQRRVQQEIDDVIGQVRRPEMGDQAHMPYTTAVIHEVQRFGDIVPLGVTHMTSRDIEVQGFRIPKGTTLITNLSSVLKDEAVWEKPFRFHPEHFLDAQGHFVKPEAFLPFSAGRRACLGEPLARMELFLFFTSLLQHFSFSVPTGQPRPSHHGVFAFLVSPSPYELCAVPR
Cytochrome P450 2C9, sequence (P11712 whole entry): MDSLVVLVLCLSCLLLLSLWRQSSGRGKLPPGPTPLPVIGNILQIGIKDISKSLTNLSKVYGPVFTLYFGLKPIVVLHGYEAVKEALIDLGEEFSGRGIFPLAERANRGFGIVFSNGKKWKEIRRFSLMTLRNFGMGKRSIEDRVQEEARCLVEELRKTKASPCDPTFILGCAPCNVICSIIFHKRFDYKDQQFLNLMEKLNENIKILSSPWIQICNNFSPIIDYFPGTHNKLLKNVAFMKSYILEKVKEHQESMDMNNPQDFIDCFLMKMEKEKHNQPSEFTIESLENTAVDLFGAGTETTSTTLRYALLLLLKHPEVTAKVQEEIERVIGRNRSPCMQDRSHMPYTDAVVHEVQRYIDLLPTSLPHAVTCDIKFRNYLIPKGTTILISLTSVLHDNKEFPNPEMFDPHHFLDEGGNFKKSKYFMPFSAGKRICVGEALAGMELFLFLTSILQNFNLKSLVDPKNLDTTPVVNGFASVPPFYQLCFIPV
Luciferin 4-monooxygenase, sequence (P08659 whole entry): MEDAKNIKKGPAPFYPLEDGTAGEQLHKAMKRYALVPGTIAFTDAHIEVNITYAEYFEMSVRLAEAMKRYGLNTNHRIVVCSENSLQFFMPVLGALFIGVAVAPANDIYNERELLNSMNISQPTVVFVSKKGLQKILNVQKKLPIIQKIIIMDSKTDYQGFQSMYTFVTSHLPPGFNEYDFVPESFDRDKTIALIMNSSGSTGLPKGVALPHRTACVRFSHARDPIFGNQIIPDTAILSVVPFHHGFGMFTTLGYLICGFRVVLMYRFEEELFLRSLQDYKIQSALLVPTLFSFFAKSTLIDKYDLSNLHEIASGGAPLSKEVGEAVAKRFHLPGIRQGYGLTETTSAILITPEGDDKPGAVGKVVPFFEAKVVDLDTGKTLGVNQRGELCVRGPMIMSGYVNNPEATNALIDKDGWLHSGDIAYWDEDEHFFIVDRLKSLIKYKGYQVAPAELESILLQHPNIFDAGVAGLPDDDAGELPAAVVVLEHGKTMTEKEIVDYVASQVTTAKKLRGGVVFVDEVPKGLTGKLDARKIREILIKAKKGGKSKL

Consider `Cc1ccc([N+](=O)[O-])cc1NC(=O)CSc1n[nH]c(-c2cccnc2)n1`, for which the EC50 in test [1] is reported as > 195 µM (not active).
For the compound `Cc1cccc(C)c1NC(=O)C[S+]([O-])CC(=O)NCCCc1ccccc1` (centres undefined), the values for the half-maximal activity concentration (AC50) in [2] and in test [3] were 14.1 µM (inconclusive) and 22.4 µM (inconclusive), respectively.
For the compound `COc1ccc(Oc2ncc3nc(-c4ccc(F)cc4)c(=O)n(Cc4cccs4)c3n2)cc1`, the AC50 in test [4] is 5.01 µM (inconclusive); in test [3], 3.16 µM (inconclusive).
As to `Cc1ccc(-c2cc(C(=O)Nc3cccnc3)[nH]n2)c(O)c1C`, the results for the EC50 in test [5] and in [6] were > 350 µM (not active) and 7.01 µM (active), respectively.
The matching figures for `Cc1cc(C)c(C(=O)N2CCCC(N3CCN(c4cccc(C(F)(F)F)c4)CC3)C2)o1` (centres undefined): > 350 µM (not active) and > 350 µM (not active).
Turning to `COc1ccc(CN2CCN(S(=O)(=O)c3ccccc3)CC2)cc1Br`, the EC50 is given as > 120 µM (not active) in [7], > 120 µM (not active) in test [8], > 195 µM (not active) in test [1] and > 120 µM (not active) in test [9].
Regarding `Cc1ccc(N2C(=O)/C(=C/N3CCN(C(=O)c4ccco4)CC3)C(=O)NC2=S)cc1C`, the figures for the AC50 in test [10], in [2] and in test [3] were 39.8 µM (inconclusive), 25.1 µM (inconclusive) and 20 µM (inconclusive), respectively.
As for `Cc1noc(C)c1-c1nc(NCCN2CCOCC2)c2ccccc2n1`, the AC50 in [11] is 25.1 µM (inconclusive).
With `CC(C)CCNC(=O)Cn1cc2c(n1)CCCCC2`, the EC50 in test [1] was > 195 µM (not active).
Turning to `CN(Cc1ccco1)c1ccnc(-c2cccc(C#N)c2)n1`, the AC50 in [11] is 20 µM (inconclusive).
Turning to `Cc1cccc(Oc2nc3ccccn3c(=O)c2/C=C(\C#N)C(=O)NC2CCS(=O)(=O)C2)c1C` (centres undefined), the results for the EC50 in test [12] and in test [13] were > 112 µM (not active) and 4.44 µM (active), respectively.
As to `O=C(c1ccco1)N1CCC[C@@]2(CCN(Cc3nccs3)C2)C1`, the AC50 is 39.8 µM (inconclusive) in [10], 10 µM (inconclusive) in test [11] and 7.94 µM (inconclusive) in [2].
As to `COCCn1c(=O)c(-c2cccc(C#N)c2)nc2cnc(N3CCN(C)CC3)nc21`, the AC50 in [4] was 15.8 µM (inconclusive); in test [3] it was 3.98 µM (inconclusive).
With `CCC(Cc1ccccc1)NS(=O)(=O)c1c(C)nc2sccn2c1=O` (centres undefined), the EC50 in test [12] and in [13] was > 112 µM (not active) throughout.
Consider `Cc1noc(COc2ccc(OCc3nc(C)no3)cc2)n1`, for which the AC50 is 17.8 µM (inconclusive) in [10] and 39.8 µM (inconclusive) in test [3].
Take `C=CCn1c2ccccc2c2nnc(SCC(=O)O)nc21`: the EC50 in test [1] is > 195 µM (not active).
The same measure, in the same setting: the same measure for `OCC[C@@H]1C[C@@H](O)[C@H](O)[C@@]2(Cc3ccccc3CO2)O1`: > 195 µM (not active).
For the compound `O/C(=C(\C([S-])=Nc1cccc2ccccc12)[n+]1ccccc1)c1cccs1`, the EC50 in [5] and in test [6] was > 350 µM (not active) throughout.
As for `CC1=NN(C(N)=S)C(C)(C)C1`, in test [1], the EC50 is > 195 µM (not active).
For the compound `COC(=O)Cc1ccc(NC(S)=NC(C)(C)C)cc1`, the EC50 in test [5] and in [6] was > 350 µM (not active) in each case.
On to `Cc1ccc(CNC(=O)c2cnc3ccccc3n2)cc1`, for which the EC50 in test [12] and in [13] was > 112 µM (not active) each time.
In the case of `CC(=O)c1ccc(NC(=O)Nc2ccc([N+](=O)[O-])cc2C)cc1`, the EC50 in [12] and in [13] was > 112 µM (not active) each time.
Turning to `Cc1ccc(S(=O)(=O)Nc2cccnc2)c(C)c1C`, the EC50 in test [1] was > 195 µM (not active).
For the compound `Cc1ccc(C(OC(=O)c2ccco2)C(=O)NC2CCCCC2)cc1` (centres undefined), the concentration at half-maximal activity (AC50) in [3] was 39.8 µM (inconclusive).
Take `COc1cccc(N2C(=O)N(c3ccccc3)C3CS(=O)(=O)CC32)c1` (centres undefined): the EC50 in [1] was > 195 µM (not active).
`COC(=O)[C@@]1(Cc2ccc(F)cc2)[C@H]2c3cc(C(=O)N4CCCC4)n(Cc4ccc(C)o4)c3C[C@H]2CN1C(=O)c1ccccc1`: the AC50 in [11] was 39.8 µM (inconclusive); in test [4], 10 µM (inconclusive).
As for `COc1ccc(/C=C2\CCc3c2nc2ccccc2c3C(=O)O)cc1OC`, the values for the EC50 in test [12] and in [13] were 6.42 µM (active) and 73.5 µM (active), respectively.
Regarding `Cc1cc(C(=O)NCc2ccccc2)no1`, the values for the AC50 in test [10], in test [11] and in test [4] were 28.2 µM (inconclusive), 20 µM (inconclusive) and 0.398 µM (inconclusive), respectively.
With `COc1ccc(-n2c(-c3cccc(OC)c3)nc(=S)c3c2CCCC3)cc1`, the EC50 in test [1] is reported as > 195 µM (not active).
As to `Cc1cc2nc(-c3ccc(NC(=O)c4cccnc4)cc3)oc2cc1C`, the EC50 in test [12] and in test [13] was > 112 µM (not active) throughout. Besides, the AC50 in test [14] was 3.87 µM (active).
Consider `COc1ccc(CNc2nc(-c3cccc(NS(C)(=O)=O)c3)nc3ccccc23)c(OC)c1`, for which, in test [11], the concentration at half-maximal activity (AC50) was 12.6 µM (inconclusive).
Consider `O=C(CSc1nnnn1C1CCCC1)Nc1ccc(F)cc1`, for which the AC50 in [4] was 25.1 µM (inconclusive); in test [3], 31.6 µM (inconclusive).
With `CCOC(=O)N1CCC(Nc2ncnc3c2cnn3-c2ccc(Cl)cc2)CC1`, the EC50 in test [1] was 89.4 µM (active).
Take `Cc1onc(-c2c(F)cccc2Cl)c1C(=O)NCC1COc2ccccc2O1` (centres undefined): the EC50 in test [12] and in [13] was > 112 µM (not active) throughout.
For the compound `CN1CCN(c2nc(-c3cccc(C#N)c3)nc3ccccc23)CC1`, the AC50 in [11] is 12.6 µM (inconclusive).
For the compound `CCn1c(N2CCC(Cc3ccccc3)CC2)nc2c1c(=O)[nH]c(=O)n2C`, the EC50 in test [5] and in test [6] was > 350 µM (not active) throughout.
For the compound `CCCCN(CC)C(=O)Cc1ccccc1OC`, the half-maximal activity concentration (AC50) in test [11] is 28.2 µM (inconclusive).
`CCS(=O)(=O)c1ccc2c(c1)N(S(C)(=O)=O)CC(C(=O)NCCOC)O2` (centres undefined): in test [3], the AC50 was 35.5 µM (inconclusive).
Take `Cc1cc(NC(=O)COc2ccc(Cl)cc2Cl)n(-c2ccccc2)n1`: the AC50 in test [11] is 7.08 µM (inconclusive).
Regarding `c1cc(CNCCCN2CCOCC2)ccn1`, the figures for the AC50 in [11] and in test [2] were 15.8 µM (inconclusive) and 31.6 µM (inconclusive), respectively.
`CN(C)c1ccc(/C=C2/C(=O)Nc3ccccc32)cc1`: in test [3], the half-maximal activity concentration (AC50) was 39.8 µM (inconclusive).
Same read-out and setting: the same measure for `O=C(N/N=C/c1ccc2c(c1)OCO2)/C(=C/c1ccc2c(c1)OCO2)NC(=O)c1ccccc1`: 12.6 µM (inconclusive).
Turning to `C/C(=N\Nc1nc(-c2ccccc2)cs1)c1cccs1`, the EC50 in test [1] is recorded as > 195 µM (not active).
Regarding `CCc1ccccc1N(CC(=O)N/N=C/c1ccc(OC(=O)OC)c(OC)c1)S(C)(=O)=O`, the EC50 was > 112 µM (not active) in [12] and 43.7 µM (active) in test [13].
As for `Cc1c(O)ccc(/C=N/Nc2ncccc2[N+](=O)[O-])c1O`, the EC50 in test [12] is 0.176 µM (active); in [13], 1.12 µM (active); in [15], > 260 µM (inconclusive).
Consider `CN(C)/C=N/C(=O)c1cn(-c2ccc(F)cc2)c(=O)c2ccccc12`, for which the EC50 in test [5] and in [6] was > 350 µM (not active) each time.
